“And” between values parts separate entries of the source, which are not always exact repeats. Equal values may be shown once. Read-outs that look alike come from different tables or passages of the source.
Tested on: L. major lysate proteins
Assay: Multitargeted bead mixture chemoproteomics, single concentration competition, proteome-wide
Format: binding
Conditions: for fold change: vehicle control = 1

Nc1nc2c(c(=O)[nH]1)N(C=O)C(CNc1ccc(C(=O)N[C@@H](CCC(=O)O)C(=O)O)cc1)CN2 (some centres unmarked) [LEU, leucovorin]
fold change relative to vehicle control: 1.05 and 1.2 and 1.04 | fold change vs vehicle control: 0.97 and 1.04 | fold change vs vehicle control (protein CLI00016468.1 KINETOPLASTID MEMBRANE PROTEIN-11): 0.87 | fold change vs vehicle control (protein LINJ.03.0240 RIBOSOMAL PROTEIN L38, PUTATIVE): 0.99 | fold change vs vehicle control (protein LINJ.11.0780 40S RIBOSOMAL PROTEIN S21, PUTATIVE): 1.06 | fold change (protein LINJ.11.0960 40S RIBOSOMAL PROTEIN S5): 1.08 | fold change vs vehicle control (protein LINJ.13.0990 PROTEASOME REGULATORY ATPASE SUBUNIT 2, PUTATIVE): 0.99 | fold change vs vehicle control (protein LINJ.15.0330 RIBONUCLEOPROTEIN P18, MIT[…], PUTATIVE): 1.01 | fold change (protein LINJ.19.0090 FIBRILLARIN, PUTATIVE): 0.98 | fold change relative to vehicle control (protein LINJ.23.0860, 3-KETOACYL-COA THIOLASE, PUTATIVE): 1.25 | fold change relative to vehicle control (protein LINJ.24.2300, 60S RIBOSOMAL PROTEIN L12, PUTATIVE): 1.07 | fold change vs vehicle control (protein LINJ.25.2230 SUCCINYL-COA […] SUBUNIT, PUTATIVE): 1.12 | fold change vs vehicle control (protein LINJ.26.1630 40S RIBOSOMAL PROTEIN S33, PUTATIVE): 0.97 | fold change vs vehicle control (protein LINJ.28.1100 RIBOSOMAL PROTEIN S20, PUTATIVE): 0.97 | fold change relative to vehicle control (protein LINJ.28.1940, R[…] A, 51KDA SUBUNIT, PUTATIVE): 1.01 | fold change (protein LINJ.28.2280 DYNEIN LIGHT CHAIN LC6, FLAGELLAR OUTER ARM, PUTATIVE): 0.84 | fold change (protein LINJ.28.2870 PROTEIN PHOSPHATASE 4 CATALYTIC SUBUNIT, PUTATIVE): 0.86 | fold change relative to vehicle control (protein LINJ.31.1600, […] OXIDASE VIII (COX VIII), PUTATIVE): 0.98 | fold change relative to vehicle control (protein LINJ.33.1730, CYCLOPHILIN 4, PUTATIVE): 1.85 | fold change vs vehicle control (protein LINJ.34.0670 PROTEASOME REGULATORY NON-ATP-ASE SUBUNIT 11, PUTATIVE,19S PROTEASOME REGULATORY SUBUNIT): 0.93 | fold change vs vehicle control (protein LINJ.36.0780 PROTEIN KINASE, PUTATIVE,MITOGEN-ACTIVATED PROTEIN KINASE, PUTATIVE): 0.84 | fold change relative to vehicle control (protein LINJ.36.3960, BASIC TRANSCRIPTION FACTOR 3A, PUTATIVE): 2.31 | fold change relative to vehicle control (protein LINJ.36.4080, HY[…], CONSERVED): 1.26 | fold change (protein LINJ.36.4180 HS1VU COMPLEX PROTEOLYTIC SUBUNIT-LIKE): 0.87 | fold change vs vehicle control (protein LINJ.[…] LONG-CHAIN-FATTY-ACID-COA LIGASE, PUTATIVE): 1.05 | fold change (protein LMJF.01.0570 TRIC[…], PUTATIVE): 0.89 | fold change relative to vehicle control (protein LMJF.03.0200, DELTA-1-PYRROLINE-5-CARBOXYLATE DEHYDROGENASE, PUTATIVE): 1.13 | fold change (protein LMJF.03.0230 LONG CHAIN FATTY ACYL COA SYNTHETASE, PUTATIVE): 0.93 | fold change (protein LMJF.03.0980 ELONGATION INITIATION FACTOR 2 ALPHA SUBUNIT, PUTATIVE): 1 | fold change vs vehicle control (protein LMJF.04.0630 HY[…], CONSERVED): 1.02 | fold change vs vehicle control (protein LMJF.04.1230 actin): 0.94 | fold change (protein LMJF.05.0100 PHOSPHOPROTEIN PHOSPHATASE, PUTATIVE): 0.74 | fold change (protein LMJF.05.0280 PROTEIN TYROSINE PHOSPHATASE, PUTATIVE): 0.85 | fold change (protein LMJF.05.0510 ATPASE ALPHA SUBUNIT): 1 | fold change (protein LMJF.05.1040 STOMATIN-LIKE PROTEIN): 0.94 | fold change (protein LMJF.06.0650 LANOSTEROL SYNTHASE, PUTATIVE): 0.97 | fold change vs vehicle control (protein LMJF.07.0700 TOPOISOMERASE-RELATED FUNCTION PROTEIN-LIKE PROTEIN): 1.01 | fold change (protein LMJF.07.1000 RNA BINDING PROTEIN-LIKE PROTEIN): 1.02 | fold change relative to vehicle control (protein LMJF.07.1140, PEPTIDE METHIONINE SULFOXIDE REDUCTASE-LIKE): 1.3 | fold change (protein LMJF.08.0510 RIBOSE-PHOSPHATE PYROPHOSPHOKINASE, PUTATIVE): 0.82 | fold change vs vehicle control (protein LMJF.08.0550 T[…]-LIKE PROTEIN): 1.05 | fold change relative to vehicle control (protein LMJF.08.1030, cathepsin L-like protease): 1.06 | fold change vs vehicle control (protein LMJF.08.1100 HYPOTHETICAL PROTEIN, CONSERVED): 0.91 | fold change vs vehicle control (protein LMJF.09.1010 HYPOTHETICAL PROTEIN, CONSERVED): 0.98 | fold change relative to vehicle control (protein LMJF.09.1120, MIT[…] BINDING PROTEIN 2,MRP2, GBP25): 1.22 | fold change vs vehicle control (protein LMJF.09.1260 HY[…], CONSERVED): 1.02 | fold change (protein LMJF.10.0210 NUCLEOLAR PROTEIN, PUTATIVE): 0.98 | fold change vs vehicle control (protein LMJF.10.0310 PROTEIN TRANSPORT PROTEIN SEC23, PUTATIVE): 1.08 | fold change (protein LMJF.11.0590 3-[…]-COA C[…] SUBUNIT, PUTATIVE): 0.98 | fold change relative to vehicle control (protein LMJF.11.0630, AMINOPEPTIDASE, PUTATIVE,METALLO-PEPTIDASE, CLAN MF, FAMILY M17): 1.23 | fold change vs vehicle control (protein LMJF.11.1050 PRETRANSLOCATION PROTEIN, ALPHA SUBUNIT, PUTATIVE,SEC61-LIKE (PRETRANSLOCATION PROCESS) PROTEIN, PUTATIVE): 0.89 | fold change (protein LMJF.11.1160 PROTEIN TRANSPORT PROTEIN SEC31, PUTATIVE): 0.83 | fold change (protein LMJF.12.0030 PROTEASOME BETA-1 SUBUNIT, PUTATIVE): 0.95 | fold change vs vehicle control (protein LMJF.12.0210 […] […]1L8 3, PUTATIVE): 1.05 | fold change relative to vehicle control (protein LMJF.12.0530, GLUCOSE-6-PHOSPHATE ISOMERASE): 1.53 | fold change (protein LMJF.12.0630 ALANINE AMINOTRANSFERASE): 0.86 | fold change vs vehicle control (protein LMJF.13.1230 40S RIBOSOMAL PROTEIN S4, PUTATIVE): 1.16 | fold change vs vehicle control (protein LMJF.14.0310 […] 3 SUBUNIT, PUTATIVE): 1.04 | fold change (protein LMJF.14.0660 FATTY ACID ELONGASE, PUTATIVE): 0.88 | fold change (protein LMJF.14.0670 FATTY ACID ELONGASE, PUTATIVE): 0.9 | fold change vs vehicle control (protein LMJF.14.0680 FATTY ACID ELONGASE, PUTATIVE): 1.06 | fold change (protein LMJF.14.0990 ADP/ATP MITOCHONDRIAL CARRIER-LIKE PROTEIN): 0.97 | fold change vs vehicle control (protein LMJF.14.1160 ENOLASE): 1.01 | fold change (protein LMJF.14.1440 HYPOTHETICAL PROTEIN, CONSERVED (cytoskeleton associated protein, putative)): 0.9 | fold change (protein LMJF.15.0040 HYPOTHETICAL PROTEIN, CONSERVED (Possible lysine decarboxylase, putative)): 0.89
